From patent publication US10294202B2, “Pyrrolidinones as herbicides” (FMC Corporation, priority 2013, dated 2019)

Assays:
ryegrass, Italian = assay: Test A pre-/postemergence herbicide test; assay type: in vivo, Lolium multiflorum
Method in brief: (§1)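 Visual injury ratings, 0 = no effect, 100 = complete control, taken ~10 days after treatment against untreated greenhouse controls. Preemergence: directed soil spray onto seeded loam/sand pots. Postemergence: spray onto plants at one- to two-leaf stage, 2–10 cm tall.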

barnyardgrass = assay: Test A pre-/postemergence herbicide test; assay type: in vivo, Echinochloa crus-galli
Method in brief: as §1

pigweed = assay: Test A pre-/postemergence herbicide test; assay type: in vivo, Amaranthus retroflexus
Method in brief: as §1

ragweed = assay: Test C pre-/postemergence herbicide test; assay type: in vivo, Ambrosia elatior
Description: (§2) Seeds of plant species selected from blackgrass (Alopecurus myosuroides), ryegrass, Italian (Italian ryegrass, Lolium multiflorum), wheat (winter wheat, Triticum aestivum), galium (catchweed bedstraw, Galium aparine), corn (Zea mays), crabgrass, large (large crabgrass, Digitaria sanguinalis), foxtail, giant (giant foxtail, Setaria faberii), johnsongrass (Sorghum halepense), lambsquarters (Chenopodium album), morningglory (Ipomoea coccinea), nutsedge, yellow (yellow nutsedge, Cyperus esculentus), pigweed (Amaranthus retroflexus), ragweed (common ragweed, Ambrosia elatior), soybean (Glycine max), barnyardgrass (Echinochloa crus-galli), oilseed rape (Brassica napus), waterhemp (common waterhemp, Amaranthus rudis), kochia (Kochia scoparia), oat, wild (wild oat, Avena fatua), surinam grass (Brachiaria decumbens), foxtail, green (green foxtail, Setaria viridis), goosegrass (Eleusine indica), bromegrass, downy (downy bromegrass, Bromus tectorum), nightshade (eastern black nightshade, Solanum ptycanthum), cocklebur (common cocklebur, Xanthium strumarium), cupgrass, woolly (woolly cupgrass, Eriochloa villosa), bermudagrass (Cynodon dactylon), sunflower, (common oilseed sunflower, Helianthus annuus), Russian thistle (Salsola kali) and velvetleaf (Abutilon theophrasti) were planted into a blend of loam soil and sand and treated preemergence with test chemicals formulated in a non-phytotoxic solvent mixture which included a surfactant. At the same time, plants selected from these crop and weed species and also barley (winter barley, Hordeum vulgare), […]), chickweed (common chickweed, Stellaria media), deadnettle (henbit deadnettle, Lamium amplexicaule), and canarygrass (littleseed canarygrass, Phalaris minor) were planted in pots containing Redi-Earth® planting medium (Scotts Company, 14111 Scottslawn Road, Marysville, Ohio 43041) comprising spaghnum peat moss, vermiculite, wetting agent and starter nutrients and treated with postemergence applications of test chemicals formulated in the same manner. Plants ranged in height from 2 to 18 cm (1- to 4-leaf stage) for postemergence treatments. Treated plants and controls were maintained in a greenhouse for 13 to 15 days, after which time all species were compared to controls and visually evaluated. Plant response ratings, summarized in Table C, are based on a scale of 0 to 100 where 0 is no effect and 100 is complete control. A dash (-) response means no test result.

corn = assay: Test C pre-/postemergence herbicide test; assay type: in vivo, Zea mays
Description: as §2

nutsedge, yellow = assay: Test C pre-/postemergence herbicide test; assay type: in vivo, Cyperus esculentus
Description: as §2

oat, wild = assay: Test C pre-/postemergence herbicide test; assay type: in vivo, Avena fatua; settings: Postemergence
Description: as §2

[1] = Postemergence, 125 g ai/ha, visual rating on 0 to 100 scale (0 no effect, 100 complete control), approx. 10 days
[2] = Postemergence, 500 g ai/ha, 0 to 100 scale (0 no effect, 100 complete control)
[3] = Preemergence, 125 g ai/ha, 0 to 100 scale where 0 is no effect and 100 is complete control
[4] = Preemergence, 500 g ai/ha, visual rating on 0 to 100 scale (0 no effect, 100 complete control)
[5] = Postemergence, 31 g ai/ha, scale 0 to 100 (0 no effect, 100 complete control)
[6] = Postemergence, 62 g ai/ha, scale 0 (no effect) to 100 (complete control)
[7] = Postemergence, 125 g ai/ha, scale 0 to 100 (0 no effect, 100 complete control)
[8] = Postemergence, 250 g ai/ha, scale 0 to 100 (0 no effect, 100 complete control)
[9] = Preemergence, 62 g ai/ha, scale 0 to 100 (0 no effect, 100 complete control)
[10] = Preemergence, 125 g ai/ha, scale 0 to 100
[11] = Preemergence, 31 g ai/ha, scale 0 to 100, 0 is no effect and 100 is complete control
[12] = 125 g ai/ha, visual rating, 0 to 100 scale, 0 no effect, 100 complete control, approximately 10 days, preemergence
[13] = Postemergence, 125 g ai/ha, 0 to 100 scale, 0 is no effect, 100 is complete control
[14] = preemergence, 500 g ai/ha, 0 to 100 scale, 0 is no effect and 100 is complete control
[15] = Preemergence, 125 g ai/ha, scale 0 to 100 (0 no effect, 100 complete control)
[16] = Postemergence, 1000 g ai/ha, 0 to 100 scale (0 no effect, 100 complete control)
[17] = preemergence, 1000 g ai/ha, 0 to 100 scale

O=C1NCC(c2cccc(OC(F)F)c2)C1C(=O)Nc1cccc(F)c1F (centres unmarked) [Compound 324]
Plant response rating, Ryegrass, Italian (ryegrass, Italian; [1]): 30 | Plant response rating, Ryegrass, Italian (ryegrass, Italian; [2]): 50 | Plant response rating, Ryegrass, Italian (ryegrass, Italian; [3]): 30 | Ryegrass, Italian plant response rating (ryegrass, Italian; [4]): 40 | Plant response rating, Barnyardgrass (barnyardgrass; [1]): 90 | Plant response rating, Barnyardgrass (barnyardgrass; [2]): 90 | Plant response rating, Barnyardgrass (barnyardgrass; [3]): 90 | Barnyardgrass plant response rating (barnyardgrass; [4]): 90 | Plant response rating, Pigweed (pigweed; [1]): 40 | Plant response rating, Pigweed (pigweed; [2]): 70 | Plant response rating, Pigweed (pigweed; [3]): 30 | Pigweed plant response rating (pigweed; [4]): 60 | Plant response rating, Ragweed (ragweed; [5]): 5 | Plant response rating, Ragweed (ragweed; [6]): 20 | Plant response rating, Ragweed (ragweed; [7]): 25 | Plant response rating, Ragweed (ragweed; [8]): 40 | Ragweed plant response rating (ragweed; [9]): 60 | Plant response rating, Ragweed (ragweed; [10]): 75 | Plant response rating, Corn (corn; [5]): 0 | Plant response rating, Corn (corn; [6]): 0 | Plant response rating, Corn (corn; [7]): 55 | Plant response rating, Corn (corn; [8]): 0 | Corn plant response rating (corn; [11]): 25 | Corn plant response rating (corn; [9]): 70 | Plant response rating, Corn (corn; [10]): 75 | Plant response rating (scale of 0 to 100), Corn (corn; Preemergence, 250 g ai/ha): 85 | Plant response rating, Nutsedge, Yellow (nutsedge, yellow; [5]): 0 | Plant response rating, Nutsedge, Yellow (nutsedge, yellow; [6]): 0 | Plant response rating, Nutsedge, Yellow (nutsedge, yellow; [7]): 0 | Plant response rating, Nutsedge, Yellow (nutsedge, yellow; [8]): 0 | Nutsedge, Yellow plant response rating (nutsedge, yellow; [11]): 0 | Nutsedge, Yellow plant response rating (nutsedge, yellow; [9]): 0 | Plant response rating, Nutsedge, Yellow (nutsedge, yellow; [10]): 0 | Plant response rating (scale of 0 to 100), Nutsedge, Yellow (nutsedge, yellow; Preemergence, 250 g ai/ha): 35 | Plant response rating, Oat, Wild (oat, wild; 31 g ai/ha, scale 0 to 100 (0 no effect, 100 complete control)): 0 | Plant response rating, Oat, Wild (oat, wild; 62 g ai/ha, scale 0 (no effect) to 100 (complete control)): 0 | Plant response rating, Oat, Wild (oat, wild; 125 g ai/ha, scale 0 to 100 (0 no effect, 100 complete control)): 0 | Plant response rating, Oat, Wild (oat, wild; 250 g ai/ha, scale 0 to 100 (0 no effect, 100 complete control)): 5

O=C1NCC(c2cccc(C(F)F)c2)C1C(=O)Nc1cccc(F)c1F (racemic) [Compound 211]
Plant response rating, Ryegrass, Italian (ryegrass, Italian; [12]): 0 | Plant response rating, Ryegrass, Italian (ryegrass, Italian; [13]): 30 | Ryegrass, Italian plant response rating (0 to 100 scale, 0 is no effect, 100 is complete control) (ryegrass, Italian; Postemergence, 500 g ai/ha): 60 | Plant response rating, Ryegrass, Italian (ryegrass, Italian; [14]): 40 | Plant response rating, Barnyardgrass (barnyardgrass; [12]): 80 | Plant response rating, Barnyardgrass (barnyardgrass; [13]): 90 | Barnyardgrass plant response rating (0 to 100 scale, 0 is no effect, 100 is complete control) (barnyardgrass; Postemergence, 500 g ai/ha): 90 | Plant response rating, Barnyardgrass (barnyardgrass; [14]): 90 | Plant response rating, Pigweed (pigweed; [12]): 20 | Plant response rating, Pigweed (pigweed; [13]): 0 | Pigweed plant response rating (0 to 100 scale, 0 is no effect, 100 is complete control) (pigweed; Postemergence, 500 g ai/ha): 50 | Plant response rating, Pigweed (pigweed; [14]): 70 | Ragweed plant response rating (ragweed; [11]): 0 | Ragweed plant response rating (ragweed; [9]): 10 | Plant response rating, Ragweed (ragweed; [15]): 85 | Plant response rating (scale of 0 to 100), Ragweed (ragweed; Preemergence, 250 g ai/ha): 100 | Corn plant response rating (corn; [11]): 0 | Corn plant response rating (corn; [9]): 25 | Plant response rating, Corn (corn; [15]): 0 | Plant response rating (scale of 0 to 100), Corn (corn; Preemergence, 250 g ai/ha): 80 | Nutsedge, Yellow plant response rating (nutsedge, yellow; [11]): 0 | Nutsedge, Yellow plant response rating (nutsedge, yellow; [9]): 0 | Plant response rating, Nutsedge, Yellow (nutsedge, yellow; [15]): 0 | Plant response rating (scale of 0 to 100), Nutsedge, Yellow (nutsedge, yellow; Preemergence, 250 g ai/ha): 10

O=C1NCC(c2cccc(Br)c2)C1C(=O)Nc1ccccc1F (centres unmarked) [Compound 307]
Plant response rating, Ryegrass, Italian (ryegrass, Italian; [1]): 0 | Plant response rating, Ryegrass, Italian (ryegrass, Italian; [2]): 0 | Plant response rating, Ryegrass, Italian (ryegrass, Italian; [3]): 0 | Ryegrass, Italian plant response rating (ryegrass, Italian; [4]): 0 | Plant response rating, Barnyardgrass (barnyardgrass; [1]): 70 | Plant response rating, Barnyardgrass (barnyardgrass; [2]): 90 | Plant response rating, Barnyardgrass (barnyardgrass; [3]): 80 | Barnyardgrass plant response rating (barnyardgrass; [4]): 90 | Plant response rating, Pigweed (pigweed; [1]): 0 | Plant response rating, Pigweed (pigweed; [2]): 0 | Plant response rating, Pigweed (pigweed; [3]): 0 | Pigweed plant response rating (pigweed; [4]): 0 | Ragweed plant response rating (ragweed; [9]): 0 | Plant response rating, Ragweed (ragweed; [10]): 0 | Plant response rating (scale of 0 to 100), Ragweed (ragweed; Preemergence, 250 g ai/ha): 35 | Corn plant response rating (corn; [11]): 0 | Corn plant response rating (corn; [9]): 0 | Plant response rating, Corn (corn; [10]): 40 | Plant response rating (scale of 0 to 100), Corn (corn; Preemergence, 250 g ai/ha): 40 | Nutsedge, Yellow plant response rating (nutsedge, yellow; [11]): 0 | Nutsedge, Yellow plant response rating (nutsedge, yellow; [9]): 0 | Plant response rating, Nutsedge, Yellow (nutsedge, yellow; [10]): 0 | Plant response rating (scale of 0 to 100), Nutsedge, Yellow (nutsedge, yellow; Preemergence, 250 g ai/ha): 0

O=C1NCC(c2ccc(C(F)(F)F)cc2)C1C(=O)Nc1ccccc1Cl (centres unmarked) [Compound 233]
Plant response rating, Ryegrass, Italian (ryegrass, Italian; [12]): 30 | Plant response rating, Ryegrass, Italian (ryegrass, Italian; [13]): 20 | Ryegrass, Italian plant response rating (0 to 100 scale, 0 is no effect, 100 is complete control) (ryegrass, Italian; Postemergence, 500 g ai/ha): 40 | Plant response rating, Ryegrass, Italian (ryegrass, Italian; [14]): 60 | Plant response rating, Barnyardgrass (barnyardgrass; [12]): 80 | Plant response rating, Barnyardgrass (barnyardgrass; [13]): 70 | Barnyardgrass plant response rating (0 to 100 scale, 0 is no effect, 100 is complete control) (barnyardgrass; Postemergence, 500 g ai/ha): 90 | Plant response rating, Barnyardgrass (barnyardgrass; [14]): 90 | Plant response rating, Pigweed (pigweed; [12]): 30 | Plant response rating, Pigweed (pigweed; [13]): 0 | Pigweed plant response rating (0 to 100 scale, 0 is no effect, 100 is complete control) (pigweed; Postemergence, 500 g ai/ha): 20 | Plant response rating, Pigweed (pigweed; [14]): 30 | Ragweed plant response rating (ragweed; [11]): 10 | Ragweed plant response rating (ragweed; [9]): 40 | Plant response rating, Ragweed (ragweed; [15]): 40 | Plant response rating (scale of 0 to 100), Ragweed (ragweed; Preemergence, 250 g ai/ha): 85 | Corn plant response rating (corn; [11]): 0 | Corn plant response rating (corn; [9]): 0 | Plant response rating, Corn (corn; [15]): 10 | Plant response rating (scale of 0 to 100), Corn (corn; Preemergence, 250 g ai/ha): 35 | Nutsedge, Yellow plant response rating (nutsedge, yellow; [11]): 0 | Nutsedge, Yellow plant response rating (nutsedge, yellow; [9]): 0 | Plant response rating, Nutsedge, Yellow (nutsedge, yellow; [15]): 0 | Plant response rating (scale of 0 to 100), Nutsedge, Yellow (nutsedge, yellow; Preemergence, 250 g ai/ha): 0

O=C(Nc1ccccc1F)C1C(=S)NCC1c1cccc(C(F)(F)F)c1 (centres unmarked) [Compound 274]
Plant response rating, Ryegrass, Italian (ryegrass, Italian; [1]): 0 | Plant response rating, Ryegrass, Italian (ryegrass, Italian; [16]): 20 | Plant response rating, Ryegrass, Italian (ryegrass, Italian; [17]): 40 | Plant response rating, Barnyardgrass (barnyardgrass; [16]): 90 | Plant response rating, Barnyardgrass (barnyardgrass; preemergence, 1000 g ai/ha, 0 to 100 scale (0 no effect, 100 complete control)): 90 | Plant response rating, Pigweed (pigweed; [1]): 0 | Plant response rating, Pigweed (pigweed; [16]): 20 | Plant response rating, Pigweed (pigweed; [17]): 0 | Ragweed plant response rating (ragweed; [9]): 0 | Plant response rating, Ragweed (ragweed; [15]): 0 | Plant response rating (scale of 0 to 100), Ragweed (ragweed; Preemergence, 250 g ai/ha): 0 | Corn plant response rating (corn; [11]): 0 | Corn plant response rating (corn; [9]): 5 | Plant response rating, Corn (corn; [15]): 10 | Plant response rating (scale of 0 to 100), Corn (corn; Preemergence, 250 g ai/ha): 45 | Nutsedge, Yellow plant response rating (nutsedge, yellow; [11]): 0 | Nutsedge, Yellow plant response rating (nutsedge, yellow; [9]): 0 | Plant response rating, Nutsedge, Yellow (nutsedge, yellow; [15]): 0 | Plant response rating (scale of 0 to 100), Nutsedge, Yellow (nutsedge, yellow; Preemergence, 250 g ai/ha): 0
